Measurements: PMC6400584, “Activation mechanism of ATP-sensitive K^+ channels explored with real-time nucleotide binding” (eLife, 2019)

Key:
SUR1/Kir6.2-G334D [1] = target: T1, SUR1/Kir6.2-G334D (Homo sapiens, UniProt Q09428); parameters: method as in Proks et al., 2010; conditions: ref Proks et al., 2010; read-out: EC50 for activation of currents; cited from earlier work
T1 construct: expressed in transfected cells; host or cells: HEK-293T

SUR1/Kir6.2-G334D [2] = target: T1, SUR1/Kir6.2-G334D; test: Current activation in inside-out patches; type: biochemical
Experimental: (§1) Currents were recorded from inside-out membrane patches excised from transfected HEK-293T cells. Pipettes were pulled to a resistance of 1–5 MΩ and filled with an extracellular solution containing (in mM) 140 KCl, 1.2 MgCl2, 2.6 CaCl2, and 10 HEPES, pH 7.4 or 140 KCl, 1 EGTA, 10 HEPES, pH 7.3. The intracellular (bath) solutions contained either (in mM) 107 KCl, 2 MgCl2, 1 CaCl2, 10 EGTA, and 10 HEPES, pH 7.2 for experiments showing nucleotide-dependent activation or 140 KCl, 1 EDTA, 1 EGTA, 10 HEPES pH 7.3 for experiments showing nucleotide-dependent inhibition. Nucleotides were added as indicated. Patches were perfused with an 8-channel µFlow perfusion system. Data were acquired at a holding potential of −60 mV using an Axopatch 200B amplifier and Digidata 1322A digitizer with pClamp 9.0 software (Molecular Devices). Currents were digitized at 10 kHz and low-pass filtered at 1 kHz. KATP channels run down in excised patches (reviewed by Proks et al.) ([Proks et al., 2016]). For inhibitory concentration-response relationships, rundown was corrected by alternating test nucleotide solutions with nucleotide-free (control) solutions and expressing the test currents as a fraction of the average of the control currents before and after the test solution. […]

SUR1-T1397*/Kir6.2-G334D = tested on: T2, SUR1-T1397*/Kir6.2-G334D; test: Current activation in inside-out patches; type: biochemical, Homo sapiens
T2 construct: confirmed that >95% of SUR1-T1397* was full length; expressed in transfected cells; host or cells: HEK-293T
Experimental: as §1

3xFLAG_SUR1/Kir6.2 = target: T3, 3xFLAG_SUR1/Kir6.2 (Homo sapiens, UniProt Q09428+Q14654, INS1042[…]); test: Current response to 100 μM nucleotide relative to nucleotide-free solution, inside-out patches; type: biochemical
T3 construct: expressed in transfected cells; host or cells: HEK-293T
T3 sequence (Q09428 with tags, fused parts or gaps INS1042[withheld], one chain of several): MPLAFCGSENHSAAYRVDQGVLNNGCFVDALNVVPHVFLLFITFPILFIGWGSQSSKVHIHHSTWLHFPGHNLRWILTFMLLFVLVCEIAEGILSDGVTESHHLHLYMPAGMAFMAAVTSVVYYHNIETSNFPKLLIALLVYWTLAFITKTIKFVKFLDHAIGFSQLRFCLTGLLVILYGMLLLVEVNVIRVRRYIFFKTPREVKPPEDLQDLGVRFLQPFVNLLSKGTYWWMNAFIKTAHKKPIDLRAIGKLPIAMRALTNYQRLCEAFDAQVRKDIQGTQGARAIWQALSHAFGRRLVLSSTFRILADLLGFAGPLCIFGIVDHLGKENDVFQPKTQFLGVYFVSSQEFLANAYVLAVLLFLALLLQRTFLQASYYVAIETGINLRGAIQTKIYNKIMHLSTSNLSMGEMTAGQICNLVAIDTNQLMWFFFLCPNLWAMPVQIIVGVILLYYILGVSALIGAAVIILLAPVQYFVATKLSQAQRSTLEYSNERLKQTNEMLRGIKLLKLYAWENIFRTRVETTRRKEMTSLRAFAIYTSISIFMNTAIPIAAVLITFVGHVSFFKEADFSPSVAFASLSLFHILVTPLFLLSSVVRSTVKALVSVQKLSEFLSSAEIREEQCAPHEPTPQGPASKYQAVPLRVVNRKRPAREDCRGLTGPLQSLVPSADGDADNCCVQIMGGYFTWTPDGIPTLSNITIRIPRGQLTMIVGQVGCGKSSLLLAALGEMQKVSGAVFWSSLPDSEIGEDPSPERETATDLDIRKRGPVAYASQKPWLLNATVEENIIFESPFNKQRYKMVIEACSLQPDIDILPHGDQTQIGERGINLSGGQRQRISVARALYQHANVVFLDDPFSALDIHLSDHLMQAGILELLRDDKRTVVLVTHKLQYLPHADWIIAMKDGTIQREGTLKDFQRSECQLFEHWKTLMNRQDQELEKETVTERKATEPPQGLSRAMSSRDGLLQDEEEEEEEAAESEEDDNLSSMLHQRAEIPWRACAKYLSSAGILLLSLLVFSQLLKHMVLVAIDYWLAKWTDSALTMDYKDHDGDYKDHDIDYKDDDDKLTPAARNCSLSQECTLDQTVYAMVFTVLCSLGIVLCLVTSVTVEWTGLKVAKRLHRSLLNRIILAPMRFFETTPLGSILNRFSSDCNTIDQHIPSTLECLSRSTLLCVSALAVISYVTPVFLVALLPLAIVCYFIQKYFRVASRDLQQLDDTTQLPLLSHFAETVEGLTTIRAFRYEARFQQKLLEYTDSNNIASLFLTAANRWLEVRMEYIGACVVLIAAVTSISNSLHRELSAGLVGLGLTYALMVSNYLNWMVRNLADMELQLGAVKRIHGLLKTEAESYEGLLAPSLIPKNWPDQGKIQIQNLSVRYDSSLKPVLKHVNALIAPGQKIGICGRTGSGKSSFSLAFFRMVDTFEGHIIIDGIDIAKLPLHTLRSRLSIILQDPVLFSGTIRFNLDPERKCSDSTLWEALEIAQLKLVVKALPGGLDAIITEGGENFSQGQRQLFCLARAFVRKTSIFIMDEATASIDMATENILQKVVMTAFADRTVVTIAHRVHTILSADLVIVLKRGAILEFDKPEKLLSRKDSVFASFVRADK
Experimental: as §1

SUR1-Y1353^stop/Kir6.2 = target: T4, SUR1-Y1353^stop/Kir6.2 (Homo sapiens, UniProt Q09428+Q14654); test: as above; type: biochemical; conditions: truncated SUR1-Y1353^stop
T4 construct: expressed in transfected cells; host or cells: HEK-293T
T4 sequence (Q09428 1-1352): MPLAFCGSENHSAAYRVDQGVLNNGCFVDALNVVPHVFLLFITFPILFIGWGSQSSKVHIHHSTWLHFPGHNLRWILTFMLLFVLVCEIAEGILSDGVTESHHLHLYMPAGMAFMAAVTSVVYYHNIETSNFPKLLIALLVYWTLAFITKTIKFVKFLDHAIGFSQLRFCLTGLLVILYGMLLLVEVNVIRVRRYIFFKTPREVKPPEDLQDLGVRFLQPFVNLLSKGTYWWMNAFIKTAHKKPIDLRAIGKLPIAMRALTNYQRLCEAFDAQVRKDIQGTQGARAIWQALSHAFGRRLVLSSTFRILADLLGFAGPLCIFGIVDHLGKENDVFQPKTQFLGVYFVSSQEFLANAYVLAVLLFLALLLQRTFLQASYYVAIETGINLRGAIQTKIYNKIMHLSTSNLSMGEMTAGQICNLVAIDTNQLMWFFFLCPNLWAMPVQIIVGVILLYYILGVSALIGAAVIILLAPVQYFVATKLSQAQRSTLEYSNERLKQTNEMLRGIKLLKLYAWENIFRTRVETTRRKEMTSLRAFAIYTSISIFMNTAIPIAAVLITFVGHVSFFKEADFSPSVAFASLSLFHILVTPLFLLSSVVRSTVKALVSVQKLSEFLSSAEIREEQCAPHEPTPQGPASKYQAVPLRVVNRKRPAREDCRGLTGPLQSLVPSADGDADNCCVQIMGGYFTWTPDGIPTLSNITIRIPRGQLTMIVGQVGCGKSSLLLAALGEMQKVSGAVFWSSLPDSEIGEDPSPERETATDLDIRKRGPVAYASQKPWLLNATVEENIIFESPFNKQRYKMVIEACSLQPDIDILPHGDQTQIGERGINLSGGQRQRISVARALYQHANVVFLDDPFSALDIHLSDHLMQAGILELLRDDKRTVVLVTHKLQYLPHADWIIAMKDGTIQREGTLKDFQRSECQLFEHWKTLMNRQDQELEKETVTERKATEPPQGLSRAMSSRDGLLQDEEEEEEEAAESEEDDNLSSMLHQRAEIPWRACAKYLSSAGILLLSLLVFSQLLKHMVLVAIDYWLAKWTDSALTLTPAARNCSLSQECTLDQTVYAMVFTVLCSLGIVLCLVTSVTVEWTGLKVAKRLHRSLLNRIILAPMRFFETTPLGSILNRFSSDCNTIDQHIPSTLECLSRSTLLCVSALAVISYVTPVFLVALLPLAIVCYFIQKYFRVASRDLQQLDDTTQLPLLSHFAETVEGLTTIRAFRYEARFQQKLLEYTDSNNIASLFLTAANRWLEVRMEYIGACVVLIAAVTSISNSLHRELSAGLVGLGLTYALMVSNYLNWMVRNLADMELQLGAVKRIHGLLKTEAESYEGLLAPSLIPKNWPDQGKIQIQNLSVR
T4 sequence (Q14654 1-390): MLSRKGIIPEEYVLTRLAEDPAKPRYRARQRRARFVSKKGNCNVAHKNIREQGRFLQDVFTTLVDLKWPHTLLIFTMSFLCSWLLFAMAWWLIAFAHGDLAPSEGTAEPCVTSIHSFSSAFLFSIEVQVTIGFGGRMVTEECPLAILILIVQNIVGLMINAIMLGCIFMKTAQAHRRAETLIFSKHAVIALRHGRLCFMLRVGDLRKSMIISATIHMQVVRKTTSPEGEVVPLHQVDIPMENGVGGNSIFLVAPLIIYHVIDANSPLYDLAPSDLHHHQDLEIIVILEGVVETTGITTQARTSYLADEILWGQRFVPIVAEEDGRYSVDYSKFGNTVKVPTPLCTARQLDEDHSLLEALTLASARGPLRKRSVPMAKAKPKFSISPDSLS
Experimental: as §1

SUR1-Y1353*/Kir6.2-G334D = test: Currents in inside-out patches; type: biochemical, Homo sapiens; conditions: co-expressed with pANAP and pERF1-E55D
Experimental: as §1

T1 sequence (Q09428 whole entry, stated change not applied): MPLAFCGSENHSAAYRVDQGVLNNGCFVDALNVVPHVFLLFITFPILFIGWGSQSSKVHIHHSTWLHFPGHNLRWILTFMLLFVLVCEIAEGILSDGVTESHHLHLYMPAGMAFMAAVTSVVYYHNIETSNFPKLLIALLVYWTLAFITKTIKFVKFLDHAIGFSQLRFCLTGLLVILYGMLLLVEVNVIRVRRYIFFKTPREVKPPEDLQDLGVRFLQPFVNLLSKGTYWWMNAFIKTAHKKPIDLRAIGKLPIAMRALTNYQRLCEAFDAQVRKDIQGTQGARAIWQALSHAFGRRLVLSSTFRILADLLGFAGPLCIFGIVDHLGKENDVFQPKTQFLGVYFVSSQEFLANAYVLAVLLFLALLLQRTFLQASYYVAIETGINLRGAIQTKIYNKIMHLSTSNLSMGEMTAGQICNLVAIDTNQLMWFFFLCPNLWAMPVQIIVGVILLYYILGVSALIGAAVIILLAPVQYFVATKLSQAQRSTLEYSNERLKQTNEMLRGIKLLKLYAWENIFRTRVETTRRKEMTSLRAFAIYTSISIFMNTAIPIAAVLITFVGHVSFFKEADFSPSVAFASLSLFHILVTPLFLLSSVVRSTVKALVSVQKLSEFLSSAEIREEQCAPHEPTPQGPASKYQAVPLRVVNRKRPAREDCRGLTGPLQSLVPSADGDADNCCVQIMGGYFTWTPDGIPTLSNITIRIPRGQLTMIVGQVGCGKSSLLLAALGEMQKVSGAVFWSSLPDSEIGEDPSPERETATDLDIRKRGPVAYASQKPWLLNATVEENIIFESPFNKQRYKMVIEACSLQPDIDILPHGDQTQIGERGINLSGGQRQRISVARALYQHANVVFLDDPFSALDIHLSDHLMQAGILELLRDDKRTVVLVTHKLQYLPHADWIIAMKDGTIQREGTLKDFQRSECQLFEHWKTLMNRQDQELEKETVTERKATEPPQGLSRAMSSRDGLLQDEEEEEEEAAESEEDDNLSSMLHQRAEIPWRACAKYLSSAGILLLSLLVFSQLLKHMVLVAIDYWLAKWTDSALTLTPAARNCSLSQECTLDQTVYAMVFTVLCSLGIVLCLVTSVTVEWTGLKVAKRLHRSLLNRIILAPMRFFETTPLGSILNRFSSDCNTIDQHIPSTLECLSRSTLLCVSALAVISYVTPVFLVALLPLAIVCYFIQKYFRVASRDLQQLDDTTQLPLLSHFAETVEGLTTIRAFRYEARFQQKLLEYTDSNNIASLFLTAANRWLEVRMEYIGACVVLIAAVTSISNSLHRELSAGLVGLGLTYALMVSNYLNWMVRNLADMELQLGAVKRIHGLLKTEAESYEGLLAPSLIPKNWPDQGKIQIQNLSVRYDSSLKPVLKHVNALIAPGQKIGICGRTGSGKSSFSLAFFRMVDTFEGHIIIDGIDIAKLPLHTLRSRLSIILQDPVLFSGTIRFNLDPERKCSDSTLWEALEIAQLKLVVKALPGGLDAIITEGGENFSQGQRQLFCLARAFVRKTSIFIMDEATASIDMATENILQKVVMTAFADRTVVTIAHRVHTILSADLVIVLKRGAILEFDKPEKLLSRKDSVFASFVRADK
T1 sequence (Q14654 whole entry G334D partner): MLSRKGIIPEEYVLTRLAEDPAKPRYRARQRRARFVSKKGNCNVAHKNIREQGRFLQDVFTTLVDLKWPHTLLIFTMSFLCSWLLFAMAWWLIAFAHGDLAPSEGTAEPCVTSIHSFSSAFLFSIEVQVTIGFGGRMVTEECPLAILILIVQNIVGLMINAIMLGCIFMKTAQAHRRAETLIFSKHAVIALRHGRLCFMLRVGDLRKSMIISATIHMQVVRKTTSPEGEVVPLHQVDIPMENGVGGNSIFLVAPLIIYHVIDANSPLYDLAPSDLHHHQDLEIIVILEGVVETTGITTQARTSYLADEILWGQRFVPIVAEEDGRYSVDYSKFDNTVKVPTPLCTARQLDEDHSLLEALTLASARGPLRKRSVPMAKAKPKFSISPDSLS

Nc1ncnc2c1ncn2[C@@H]1O[C@H](COP(=O)([O-])OP(=O)([O-])O)[C@@H](O)[C@H]1O.[Mg+2] [MgADP]
EC50 (SUR1/Kir6.2-G334D [1]): 7.7 µM
effect on currents (SUR1/Kir6.2-G334D [2]): activated
EC50 (SUR1-T1397*/Kir6.2-G334D; Equation 5 fit to combined data): 38.6 µM
EC50 (SUR1-T1397*/Kir6.2-G334D; mean ± SEM of fits of equation 5 to individual experiments): 44.4 ± 14.5 µM
increase of current over nucleotide-free control (3xFLAG_SUR1/Kir6.2): 3.6 fold
inhibition of current (SUR1-Y1353^stop/Kir6.2): 59%
effect on currents (SUR1-Y1353*/Kir6.2-G334D): no activation
